Data reported in paper PMC11641365, “Evaluation of In Vitro Biological Activity of Flavanone/Chromanone Derivatives: Molecular Analysis of Anticancer Mechanisms in Colorectal Cancer” (International Journal of Molecular Sciences, 2024).

Assays:
Assay type in all cases: cell-based, human
[1] = system: colon cancer cells; assay: Reactive nitrogen species level, DAF-FM probe, all tested cell lines; settings: any of the tested cell lines, compound at IC50, 24 h
Protocol: Diaminofluorescein-FM diacetate (DAF-FM diacetate, Invitrogen, Carlsbad, CA, USA), a cell-permeable fluorescent probe, is widely utilized for the detection and quantification of reactive nitrogen species (RNS), primarily nitric oxide (NO). […] Upon interaction with NO, however, it undergoes a chemical transformation resulting in the formation of a highly fluorescent benzotriazole derivative with excitation and emission maxima at 495 and 515 nm, respectively.
Cells were seeded in black 96-well fluorometric microplates at a density of 10 × 10^3 cells/mL. […] Following compound incubation, the medium was removed, and the cell monolayers were washed twice with HBSS (140 mM NaCl, 5 mM KCl, 0.8 mM MgCl2, 1.8 mM CaCl2, 1 mM Na2HPO4, 10 mM HEPES, and 1% glucose). […] Fluorescence measurements were conducted using a Perkin-Elmer LS-5B spectrofluorometer (MA, USA) at the following excitation and fluorescence emission wavelengths: λex = 495 nm/λem = 515 nm. The fluorescence intensity of control cells was arbitrarily assigned a value of 100%. The results were expressed as percentages of control, calculated by comparing the fluorescence intensity ratio of the test samples to controls (100%). The fluorescence of samples was denoted as Δf in relation to the control.

[2] = system: HT-29; assay: Autophagy induction, monodansylcadaverine (MDC) fluorescence; settings: compound at IC50, 24 h, vs control
Protocol: Autophagy induction in cells treated with the tested drugs was determined by measuring Monodansylcadaverine (MDC; Sigma-Aldrich; St. Louis, MO, USA) fluorescence according to a modified method described by Vázquez. […] In the cell, MDC accumulates in lipid-rich cell membranes. It has been shown that MDC can be used as a dye for detecting autophagy, as it accumulates in autophagolysosomes as a result of interaction with membrane lipids.
Cells were seeded in black 96-well fluorometric microplates at a density of 10 × 10^3 cells/mL. […] Following compound incubation, the medium was removed, and the cell monolayers were washed twice with HBSS (140 mM NaCl, 5 mM KCl, 0.8 mM MgCl2, 1.8 mM CaCl2, 1 mM Na2HPO4, 10 mM HEPES, and 1% glucose). A solution of MDC at a final concentration of 50 μM was added to each well and incubated in a CO2 cell culture incubator at 37 °C for 15 min. After incubation with MDC, the probe was removed, and the cells were lysed with 50 μL of lysis buffer (10 mM TRIS-HCl; pH 8 containing 0.1% Triton X-100). After lysis, fluorescence was measured at an excitation wavelength of λex = 390 nm and an emission wavelength of λem = 460 nm using a Perkin-Elmer LS-5B spectrofluorometer (Waltham, MA, USA). In order to normalize the number of cells in individual samples, the amount of DNA was determined by adding 50 μL of EB (final concentration 0.2 mM) to each well after measuring the MCB fluorescence and measuring the EB fluorescence at an excitation wavelength of λex = 530 nm and an emission wavelength of λem = 590 nm. The results were calculated as the ratio of MDC fluorescence to EB fluorescence.

[3] = system: HT-29; assay: Superoxide anion level, DHE probe; settings: compound at IC50, 24 h, vs control
Protocol: Superoxide anion (O2^•−) levels were quantified using a microplate spectrofluorometric assay with dihydroethidium (DHE) (Life Technologies, Carlsbad, CA, USA). DHE is a well-established fluorogenic probe for intracellular superoxide detection. […] The reaction between superoxide and DHE produces a highly specific red fluorescent product, 2-hydroxyethidium (2-OH-E ^+).
Cells were seeded in black 96-well fluorometric microplates at a density of 10 × 10^3 cells/mL. […] Following compound incubation, the medium was removed, and the cell monolayers were washed twice with HBSS (140 mM NaCl, 5 mM KCl, 0.8 mM MgCl2, 1.8 mM CaCl2, 1 mM Na2HPO4, 10 mM HEPES, and 1% glucose). A volume of 50 µL of DHE solution in HBSS (final concentration 5 μM) was added to each well, and the cells were incubated for 30 min in the dark at 37 °C. After incubation with the DHE, fluorescence measurements were conducted using a Perkin-Elmer LS-5B spectrofluorometer (Waltham, MA, USA) at the following excitation and fluorescence emission wavelengths: λex = 498 nm/λem = 582 nm. The fluorescence intensity of control cells was arbitrarily assigned a value of 100%. The results were expressed as percentages of control, calculated by comparing the fluorescence intensity ratio of the test samples to controls (100%). The fluorescence of samples was denoted as Δf in relation to the control.

[4] = system: LoVo; assay: MTT test after pre-incubation with antioxidants NAC or Trolox; settings: vs cells without antioxidant pre-incubation
Protocol: Moreover, the elevation of ROS levels was accompanied by a decrease in intracellular GSH. To investigate the role of ROS in the cytotoxic activity of flavonoid derivatives against cancer cells, LoVo cancer cells were pre-treated with antioxidants, NAC or a water-soluble derivative of vitamin E (Trolox), for 1 h before exposure to the studied compounds. Subsequently, the MTT assay was performed.
To elucidate the involvement of ROS in the cytotoxic effects of the investigated compounds, cells were pre-treated with the vitamin E (Trolox, Sigma-Aldrich, St. Louis, MO, USA) or N-Acetylcysteine (NAC) antioxidants for 1 h. Cells were seeded into sterile, colorless 96-well microplates at a density of 6–8 × 10^3 cells/mL, contingent upon the cell line. Following a 24 h culture period, Trolox or NAC was added at a final concentration of 50 μM and 3 mM, respectively. After 1 h of incubation, the antioxidants were removed by washing, and test compounds were administered at appropriate concentrations (10–200 μM) in fresh cell culture medium, followed by a 24 h incubation. The MTT assay was then conducted under identical experimental conditions, as detailed in Section 2.2.

| Structure (SMILES) | Change in RNS levels [1] | Increase in MDC fluorescence intensity (autophagy) [2] [%] | Increase in O2−• (superoxide anion) levels [3] | Change of the IC50 value after pre-incubation with Trolox [4] |
| --- | --- | --- | --- | --- |
| O=C1/C(=C/c2ccccc2)C(c2ccccc2)Oc2ccccc21 (centres unmarked) [Compound 5] | no significant changes | 20 | ~35% | Statistically significant increases in the IC50 value |
| COc1cccc(/C=C2/C(=O)c3ccccc3OC2c2ccccc2)c1 (centres unmarked) [Compound 3] | no significant changes |  |  | Statistically significant increases in the IC50 value |
| O=C1/C(=C/c2ccccc2)COc2ccccc21 [Compound 1] |  | 25 | approximately 40% |  |
